# Measured values published in US20090104246A1 (priority 2004, published 2009).
# Legend:
# [1] = system: human coronary artery smooth muscle cells; assay: Anti-proliferative activity in non-synchronized cultured human coronary artery smooth muscle cells stimulated with two percent fetal bovine serum; type: cell-based; details: for effect on the anti-proliferative rapamycin dose response curve: agent added to rapamycin-treated non-synchronized cells, mycophenolic acid zero to one thousand nanomolar, cladribine zero to nine hundred nanomolar
# Excerpt: The multiple curves represent various concentrations of mycophenolic acid ranging from zero to one thousand nanomolar concentrations.
# FIG. 58 illustrates, in graphical format, the anti-proliferative activity of cladribine in non-synchronized cultured human coronary artery smooth muscle cells stimulated with two percent fetal bovine serum.
# The multiple curves represent various concentrations of cladribine ranging from zero to nine hundred nanomolar concentrations.
# [2] = system: human smooth muscle cells; assay: Cladribine Example, PDGF-stimulated cell proliferation (cell count), smooth muscle cells; type: cell-based; details: from the IC50 values
# Procedure: To assess the ability of cladribine to prevent cell proliferation, human smooth muscle or endothelial cells (Clonetics, Walkersville, Md.) were seeded at a density of 2000 cells/cm^2 (approximately 3600 cells/well) into each well of 12-well plates and cultured with 1.5 ml of growth medium containing five percent fetal calf serum (FCS). After twenty-four hours, the growth medium was changed and fresh medium containing 10 ng/ml platelet-derived growth factor AB (PDGF AB; LIFE Technologies), as well as various concentrations of cladribine (0.001-10,000 nM) were added with triplicate wells. Medium was replaced with fresh cladribine-containing medium after three days. On day six, cells were detached by trypsinization to yield a cell suspension, lightly centrifuged to pellet and then counted manually using a Neubauer hemocytometer system. Cell viability was assessed by trypan blue exclusion.
# [3] = In vivo release kinetics from rapamycin/cladribine EVA/BMA coating on Bx Velocity stents, Yorkshire pigs; design: species or system porcine; details: 600 microgram basecoat, 200 microgram BMA topcoat
# Excerpt: (§1) The basecoat is applied to Bx Velocity® stents and implanted into Yorkshire pigs.
# as §1
# [4] = system: human coronary artery smooth muscle cells; assay: Anti-proliferative activity in synchronized cultured human coronary artery smooth muscle cells stimulated with two percent fetal bovine serum; type: cell-based; details: for effect on the anti-proliferative rapamycin dose response curve: agent added to rapamycin-treated synchronized cells, topotecan to 300 nanomolar, etoposide to eight hundred nanomolar, Panzem to 100 micromolar
# Excerpt: (§2) The multiple curves represent various concentrations of topotecan ranging from zero to three hundred nanomolar concentrations.
# (§3) The multiple curves represent various concentrations of etoposide ranging from zero to eight hundred nanomolar concentrations.
# The multiple curves represent various concentrations of Panzem® ranging from zero to 100 micromolar concentrations.
# cell viability = assay: Cell viability assay; type: cell-based
# Excerpt: as §2, §3
# [5] = system: human coronary artery smooth muscle cell survival; details: 6.6 nanomolar to 30,000.00 nanomolar
# Excerpt: In vitro cytotoxicity tests or assays may be utilized to determine if drugs, agents and/or compounds are potentially toxic and the level of toxicity. Essentially, in vitro cytotoxicity assays determine acute necrotic effects by a drug causing direct cellular damage. The idea behind these assays is that toxic chemicals affect basic functions of cells which are common to all cells. […] There are a number of different assays that may be utilized. In the present invention, the cytotoxicity assay utilized is based upon the measurement of cellular metabolic activity. A reduction in metabolic activity is an indication of cellular damage. Tests that can measure metabolic function measure cellular ATP levels or mitochondrial activity via MTS metabolism. FIG. 69 is a graphical representation of the results of an MTS assay of Panzem®.
# [6] = Liquid formulations of sirolimus with PEG 200, ethanol and water; concentrations by liquid chromatography; type: physicochemical; details: 4 mg/ml formulation with PEG 200, ethanol and water
# Excerpt: In accordance with exemplary embodiments of the present invention, a series of liquid formulations were developed for the local or regional delivery of water insoluble compounds such as sirolimus and its analogs, including CCl-779, ABT-578 and everolimus, through weeping balloons and catheter injection needles. […] These liquid formulations increase the apparent solubility of the pharmacologically active but water insoluble compounds by two to four orders of magnitude as compared to the solubility limits of the compounds in water. These liquid formulations rely on the use of a very small amount of organic solvents such as Ethanol (typically less than two percent) and a larger amount of safe amphiphilic (of or relating to a molecule having a polar, water soluble group attached to a non-polar, water insoluble […]) excipients such as polyethylene glycol (PEG 200, PEG 400) and vitamin E TPGS to enhance the solubility of the compounds. These liquid formulations of highly water insoluble compounds are stable and readily flowable at room temperature. Certain excipients, such as Vitamin E TPGS and BHT may be utilized to enhance the storage stability of sirolimus compounds through their anti-oxidation properties. […]
# [7] = In vivo release kinetics from rapamycin/mycophenolic acid EVA/BMA coating, porcine pharmacokinetics studies; details: 180 micrograms each of rapamycin and mycophenolic acid in 600 microgram basecoat, with or without BMA topcoat
# tumor cell lines = details: cited from earlier work
# [8] = system: human coronary artery smooth muscle cell proliferation; assay: In vitro cell culture study of coronary artery smooth muscle cell proliferation; type: cell-based
# Excerpt: FIG. 51 is a graph of the inhibition of coronary artery smooth muscle cells by trichostatin A in a cell culture study.
compound,measurement,setting,value
"Nc1nc(Cl)nc2c1ncn2[C@H]1C[C@H](O)[C@@H](CO)O1 [Cladribine, 2-chlorodeoxyadenosine]",effect on the anti-proliferative rapamycin dose response curve,[1],potentiate the anti-proliferative activity of rapamycin
same,inhibition of human coronary artery smooth muscle cell proliferation,"[1]; non-synchronized cells, two percent fetal bovine serum",completely inhibits
same,potency on smooth muscle cells relative to endothelial cells,[2],approximately twice as potent
same,in vivo elution from EVA/BMA basecoat compared with rapamycin,[3],elutes more rapidly than rapamycin
"COc1cc([C@@H]2c3cc4c(cc3[C@@H](O[C@@H]3O[C@@H]5CO[C@@H](C)O[C@H]5[C@H](O)[C@H]3O)[C@H]3COC(=O)[C@H]23)OCO4)cc(OC)c1O [Etoposide, etoposide]",effect on the anti-proliferative rapamycin dose response curve,[4],potentiate the anti-proliferative activity of rapamycin
same,cytotoxicity in cell viability assay,cell viability; concentrations up to ten micromolar,non-cytotoxic
"COc1cc2c(cc1O)CC[C@@H]1[C@@H]2CC[C@]2(C)[C@@H](O)CC[C@@H]12 [Panzem®, 2-methoxyestradiol]",cytotoxicity (MTS assay),[5],do not reduce human coronary artery smooth muscle cell survival
same,effect on the anti-proliferative rapamycin dose response curve,[4],increases the percent of inhibition of rapamycin alone
same,anti-proliferative activity alone,"[4]; synchronized cells, two percent fetal bovine serum",extremely effective inhibitor
"CO[C@H]1C[C@@H]2CC[C@@H](C)[C@@](O)(O2)C(=O)C(=O)N2CCCC[C@H]2C(=O)O[C@H]([C@H](C)C[C@@H]2CC[C@@H](O)[C@H](OC)C2)CC(=O)[C@H](C)/C=C(\C)[C@@H](O)[C@@H](OC)C(=O)[C@H](C)C[C@H](C)/C=C/C=C/C=C/1C [Rapamycin, rapamycin]",concentration relative to the solubility of sirolimus in water,[6],about four hundred to about one thousand times higher
"CC[C@@]1(O)C(=O)OCc2c1cc1n(c2=O)Cc2cc3c(CN(C)C)c(O)ccc3nc2-1 [Topotecan, topotecan]",effect on the anti-proliferative rapamycin dose response curve,[4],potentiate the anti-proliferative activity of rapamycin
same,cytotoxicity in cell viability assay,cell viability; concentrations up to one micromolar,non-cytotoxic
COc1c(C)c2c(c(O)c1C/C=C(\C)CCC(=O)O)C(=O)OC2 [mycophenolic acid],effect on the anti-proliferative rapamycin dose response curve,[1],potentiates the anti-proliferative activity of rapamycin
same,in vivo elution from EVA/BMA basecoat compared with rapamycin,[7],elutes more completely over a shorter duration than the rapamycin
CC(/C=C/C(=O)NO)=C\[C@@H](C)C(=O)c1ccc(N(C)C)cc1 [trichostatin A],anti-proliferative IC50,tumor cell lines,low nM range
same,IC50,"[8]; human coronary artery smooth muscle cells, read-out: anti-proliferative IC50",~6 nM
same,inhibition of human coronary artery smooth muscle cell proliferation,[8]; in vitro cell culture,completely inhibit
